Reference: US8637501B2, “Azinone-substituted azepino[b]indole and pyrido-pyrrolo-azepine MCH-1 antagonists, methods of making, and use thereof” (Albany Molecular Research, Inc., priority 2009, dated 2014)

How the values were obtained:
[1] = biological target: human MCH-1 receptor (Homo sapiens (Human), UniProt Q99705); assay: Binding Assay for Human Melanin-Concentrating Hormone (MCH-1) Receptor; conditions: radioligand displacement, membranes from CHO-K1 cells expressing human MCH-1 receptor; Ki from IC50 by Cheng Prusoff equation; read-out: MCH1 Ki
Chain of human MCH-1 receptor (Q99705 whole entry): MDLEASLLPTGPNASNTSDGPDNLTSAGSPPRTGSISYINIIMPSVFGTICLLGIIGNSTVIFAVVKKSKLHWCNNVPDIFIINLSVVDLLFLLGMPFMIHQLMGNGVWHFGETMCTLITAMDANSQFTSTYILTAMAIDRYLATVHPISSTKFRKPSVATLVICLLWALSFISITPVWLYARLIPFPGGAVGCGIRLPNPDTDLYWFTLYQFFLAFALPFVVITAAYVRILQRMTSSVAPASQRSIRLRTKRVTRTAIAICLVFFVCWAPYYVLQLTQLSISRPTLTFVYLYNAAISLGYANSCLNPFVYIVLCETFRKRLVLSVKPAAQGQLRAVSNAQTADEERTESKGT
Method in brief: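 Membranes from CHO-K1 cells stably expressing human MCH-1 incubated 60 min at 25 °C with 1.4 nM tritiated indazolyl-pyridinone radioligand in 50 mM Tris-HCl pH 7.4. Bound counts by filtration and scintillation; IC50 and nH by Hill fit, Ki by Cheng–Prusoff.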

Compound	Ki [1] [µM]	melting point
CC(=O)N1CCc2c(n(C)c3cc(-n4ccc(OCc5ccc(F)cn5)cc4=O)ccc23)CC1.Cl [Example 48, 1-(3-Acetyl-6-methyl-1,2,3,4,5,6-hexahydroazepino[4,5-b]indol-8-yl)-4-((5-fluoropyridin-2-yl)methoxy)pyridin-2(1H)-one]	0.06	88 to 94 °C
Cl.Cn1c2c(c3ccc(-n4ccc(OCc5ccccc5)cc4=O)cc31)CCCNC2 [Example 18, 4-(Benzyloxy)-1-(10-methyl-1,2,3,4,5,10-hexahydroazepino[3,4-b]indol-8-yl)pyridin-2(1H)-one hydrochloride]	0.0118	210 to 218 °C (dec.)
Cl.Cn1c2c(c3ccc(-n4ccc(OCc5ccc(F)cc5F)cc4=O)cc31)CNCCC2 [Example 66, 4-(2,4-Difluorobenzyloxy)-1-(6-methyl-1,2,3,4,5,6-hexahydroazepino[4,3-b]indol-8-yl)pyridin-2(1H)-one hydrochloride]	0.0073	272 to 280 °C
CSc1ccc(-c2ccn(-c3ccc4c5c(n(C)c4c3)CCCNC5)c(=O)c2)cc1.Cl [Example 32, 1-(6-Methyl-1,2,3,4,5,6-hexahydroazepino[4,3-b]indol-8-yl)-4-(4-(methylthio)phenyl)pyridin-2(1H)-one hydrochloride]	0.0049	250 to 255 °C (dec.)
Cl.Cn1c2c(c3ccc(-n4ccc(OCc5ccc(F)cn5)cc4=O)nc31)CCNCC2 [Example 81, 4-((5-Fluoropyridin-2-yl)methoxy)-1-(10-methyl-5,6,7,8,9,10-hexahydropyrido[3′,2′:4,5]pyrrolo[2,3-d]azepin-2-yl)pyridin-2(1H)-one hydrochloride]	0.033	238 to 240 °C
Cl.Cn1c2c(c3ccc(-n4ccc(OCc5ccccc5)cc4=O)cc31)CNCCC2 [Example 21, 4-(Benzyloxy)-1-(6-methyl-1,2,3,4,5,6-hexahydroazepino[4,3-b]indol-8-yl)pyridin-2(1H)-one hydrochloride]	0.0047	283 to 287 °C (dec.)
Cl.Cn1c2c(c3ccc(-n4ccc(-c5ccc(C(F)(F)F)nc5)cc4=O)nc31)CNCCC2 [Example 89, 1-(10-Methyl-5,6,7,8,9,10-hexahydropyrido[3′,2′:4,5]pyrrolo[3,2-c]azepin-2-yl)-4-(6-(trifluoromethyl)pyridin-3-yl)pyridin-2(1H)-one hydrochloride]	0.015	308 to 312 °C
Cn1c2c(c3ccc(-n4ccc(OCc5ccccc5)cc4=O)cc31)C(=O)NCCC2 [Example 38]	0.1	178 to 181 °C
Cc1ccc(-c2ccn(-c3ccc4c5c(n(C)c4c3)CCCNC5)c(=O)c2)cn1.Cl [Example 33, 1-(6-Methyl-1,2,3,4,5,6-hexahydroazepino[4,3-b]indol-8-yl)-4-(6-methylpyridin-3-yl)pyridin-2(1H)-one hydrochloride]	0.0175	245 to 250 °C (dec.)
Cl.O=c1cc(-c2ccc(C(F)(F)F)nn2)ccn1-c1ccc2c3c([nH]c2c1)CCCNC3 [Example 37, 1-(1,2,3,4,5,6-Hexahydroazepino[4,3-b]indol-8-yl)-4-(6-(trifluoromethyl)pyridazin-3-yl)pyridin-2(1H)-one hydrochloride]	0.0292	310 to 315 °C (dec.)
Cl.O=c1cc(OCc2ccccc2)ccn1-c1ccc2c3c([nH]c2c1)CCNCC3 [Example 7, 4-(Benzyloxy)-1-(1,2,3,4,5,6-hexahydroazepino[4,5-b]indol-8-yl)pyridin-2(1H)-one hydrochloride]	0.006	258 to 260 °C
Cl.Cn1c2c(c3ccc(-n4ncc(OCc5ccc(C(F)(F)F)nc5)cc4=O)cc31)CCNCC2 [Example 47, 2-(6-Methyl-1,2,3,4,5,6-hexahydroazepino[4,5-b]indol-8-yl)-5-((6-(trifluoromethyl)pyridin-3-yl)methoxy)pyridazin-3(2H)-one hydrochloride]	0.074	270 to 274 °C
Cl.Cn1c2c(c3ccc(-n4ccc(-c5ccc(C(F)(F)F)cn5)cc4=O)nc31)CCNCC2 [Example 80, 1-(10-Methyl-5,6,7,8,9,10-hexahydropyrido[3′,2′:4,5]pyrrolo[2,3-d]azepin-2-yl)-4-(5-(trifluoromethyl)pyridin-2-yl)pyridin-2(1H)-one hydrochloride]	0.069	310 to 314 °C (dec.)
CC(=O)N1CCCc2c(c3ccc(-n4ccc(OCc5ccc(F)cn5)cc4=O)cc3n2C)C1 [Example 61, 1-(2-Acetyl-6-methyl-1,2,3,4,5,6-hexahydroazepino[4,3-b]indol-8-yl)-4-((5fluoropyridin-2-yl)methyoxy)pyridin-2(1H)-one]	0.057	78 to 83 °C
Cl.Cn1c2c(c3ccc(N4CCN(CCc5ccc(F)cc5)CC4=O)cc31)CN(C1CCC1)CCC2 [Example 75, 1-(2-Cyclobutyl-6-methyl-1,2,3,4,5,6-hexahydroazepino[4,3-b]indol-8-yl)-4-(4-fluorophenethyl)piperazin-2-one hydrochloride]	0.014	194 to 205 °C
CC(=O)N1CCc2[nH]c3cc(-n4ccc(OCc5ccccc5)cc4=O)ccc3c2CC1 [Example 54, 1-(3-Acetyl-1,2,3,4,5,6-hexahydroazepino[4,5-b]indol-8-yl)-4-(benzyloxy)pyridin-2(1H)-one]	0.112	250 to 254 °C
Cl.Cn1c2c(c3ccc(-n4ccc(OCc5ccc(F)cn5)cc4=O)cc31)CCCNC2 [Example 19, 4-((5-Fluoropyridin-2-yl)methoxy)-1-(10-methyl-1,2,3,4,5,10-hexahydroazepino[3,4-b]indol-8-yl)pyridin 2(1H)-one hydrochloride]	0.0148	268 to 275 °C (dec.)
Cl.Cn1c2c(c3ccc(-n4ccc(OCc5ncc(F)cc5F)cc4=O)cc31)CCNCC2 [Example 102, 4-((3,5-Difluoropyridin-2-yl)methoxy)-1-(6-methyl-1,2,3,4,5,6-hexahydroazepino[4,5-b]indol-8-yl)pyridin-2(1H)-one hydrochloride]	0.022	215 to 225 °C
Cl.Cn1c2c(c3ccc(-n4ncc(OCc5ccc(F)cn5)cc4=O)nc31)CCNCC2 [Example 82, 5-((5-Fluoropyridin-2-yl)methoxy)-2-(10-methyl-5,6,7,8,9,10-hexahydropyrido[3′,2′:4,5]pyrrolo[2,3-d]azepin-2-yl)pyridazin-3(2H)-one hydrochloride]	0.053	226 to 230 °C (dec.)
Cl.Cn1c2c(c3ccc(N4CCN(CCc5ccc(Cl)cc5)CC4=O)cc31)CNCCC2 [Example 64, 4-(4-Chlorophenethyl)-1-(6-methyl-1,2,3,4,5,6-hexahydroazepino[4,3-b]indol-8-yl)piperazin-2-one hydrochloride]	0.0046	252 to 257 °C
Cl.Cn1c2c(c3ccc(-n4ccc(OCc5ccccc5)cc4=O)nc31)CCNCC2 [Example 77, 4-(Benzyloxy)-1-(10-methyl-5,6,7,8,9,10-hexahydropyrido[3′,2′:4,5]pyrrolo[2,3-d]azepin-2-yl)pyridin-2(1H)-one hydrochloride]	0.011	180 to 185 °C (dec.)
Cl.Cn1c2c(c3ccc(-n4ccc(-c5ccc(C(F)(F)F)nn5)cc4=O)nc31)CCNCC2 [Example 79, 1-(10-Methyl-5,6,7,8,9,10-hexahydropyrido[3′,2′:4,5]pyrrolo[2,3-d]azepin-2-yl)-4-(6-(trifluoromethyl)pyridazin-3-yl)pyridin-2(1H)-one hydrochloride]	0.235	300 to 305 °C (dec.)
CCN1CCc2c(n(C)c3cc(-n4ccc(OCc5ccccc5)cc4=O)ccc23)CC1.Cl [Example 14, 4-(Benzyloxy)-1-(3-ethyl-6-methyl-1,2,3,4,5,6-hexahydroazepino[4,5-b]indol-8-yl)pyridin-2(1H)-one hydrochloride]	0.0096	246 to 248 °C
Cl.Cn1c2c(c3ccc(-n4ccc(-c5ccc(C(F)(F)F)nn5)cc4=O)cc31)CNCCC2 [Example 28, 1-(6-Methyl-1,2,3,4,5,6-hexahydroazepino[4,3-b]indol-8-yl)-4-(6-(trifluoromethyl)pyridazin-3-yl)pyridin-2(1H)-one hydrochloride]	0.0109	248 to 252 °C (dec.)
CC(C)N1CCc2[nH]c3cc(-n4ccc(OCc5ccccc5)cc4=O)ccc3c2CC1.Cl [Example 17, 4-(Benzyloxy)-1-(3-isopropyl-1,2,3,4,5,6-hexahydroazepino[4,5-b]indol-8-yl)pyridin-2(1H)-one hydrochloride]	0.0072	152 to 155 °C
